One data set can be described thus: in vivo. As to conditions: male, Sprague-Dawley, rat, 20 nmol/kg.
Data set [1] addresses T1, human calcitonin receptor (hCTR) (Homo sapiens, UniProt P30988).
T1 construct: expressed in transfected cells
T1 sequence (P30988 25-474): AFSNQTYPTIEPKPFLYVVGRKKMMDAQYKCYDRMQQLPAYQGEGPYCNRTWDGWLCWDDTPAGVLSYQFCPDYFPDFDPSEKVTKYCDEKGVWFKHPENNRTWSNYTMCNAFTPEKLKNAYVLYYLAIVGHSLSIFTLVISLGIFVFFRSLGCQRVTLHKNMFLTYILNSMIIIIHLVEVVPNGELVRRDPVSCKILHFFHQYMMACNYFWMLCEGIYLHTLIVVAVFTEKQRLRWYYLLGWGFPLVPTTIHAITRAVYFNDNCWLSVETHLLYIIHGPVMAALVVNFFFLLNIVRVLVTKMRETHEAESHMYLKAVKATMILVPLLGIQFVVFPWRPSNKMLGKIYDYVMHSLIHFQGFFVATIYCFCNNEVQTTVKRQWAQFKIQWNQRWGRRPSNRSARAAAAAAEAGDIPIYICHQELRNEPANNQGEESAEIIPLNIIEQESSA
The data set can be described thus: cAMP production in 1321N1 cells with stable recombinant expression of human calcitonin receptor (hCTR). It is filed as cell-based. The conditions noted are these: cAMP, 1321N1 cells, assay buffer with 0.1% BSA; read-out: EC50 (pM) hCTR. The method in brief: (§1)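 Thawed cells in HBSS/0.1% BSA/25 mM HEPES pH 7.4 with 0.5 mM IBMX were incubated with peptides 30 min at room temperature; cAMP read by HTRF. EC50 from 4-parameter fit of % activation relative to maximal amylin or calcitonin effect.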

In data set [2] the target is T2, human amylin receptor (calcitonin receptor co-expressed with receptor activity modifying protein, RAMP3) (hAMYR3) (Homo sapiens, UniProt O60896+P30988).
T2 construct: expressed in transfected cells
T2 sequence (P30988 25-474): T1 sequence (P30988 25-474)
T2 sequence (O60896 24-148 partner): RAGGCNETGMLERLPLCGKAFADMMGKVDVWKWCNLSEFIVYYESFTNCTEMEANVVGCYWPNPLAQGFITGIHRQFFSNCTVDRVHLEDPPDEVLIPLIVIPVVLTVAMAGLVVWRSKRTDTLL
The data set can be described thus: cAMP production in 1321N1 cells with stable recombinant expression of human amylin receptor (hAMYR3). In kind it is cell-based. As to conditions: for Ratio (selectivity hAMYR vs hCTR, ratio of EC50 values at the two receptors): EC50 hCTR / EC50 hAMYR3; for EC50: cAMP, 1321N1 cells, assay buffer with 0.1% BSA, read-out: EC50 (pM) hAMYR3. The method in brief: as §1

Data set [3] in a line: Thioflavin T fibrillation assay. In kind it is physicochemical. The conditions noted are these: ThT fibrillation assay; peptide 1 mg/mL in 25 mM sodium acetate buffer pH 4.0; 6 days at 37 °C with shaking; >144 h = no increase. The method in brief:
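Peptides at 1 mg/mL in 25 mM sodium acetate pH 4.0 with ThT (from 0.25 mM stock), incubated 6 days at 37 °C with intermittent orbital shaking at 500–750 rpm. Fluorescence (ex 444/em 480 nm) read every 30 min; value is average time to a rise in baseline-corrected signal.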

The record followed here is patent US20240067693A1, “POLYPEPTIDES AND USES THEREOF” (MEDIMMUNE LIMITED, priority 2020, published 2024).

Each structure is given as a SMILES string. Numbered stars: 1 amine (or outer) side, 2 acyl side, 3 side chain; on linkers, the order of the positions; unused ones are H or OH. Bridge positions count the residues as written; N and C are the ends. Square brackets hold non-standard residues; d marks the D form. Side chains are listed from the residue outwards. Peptide text beside a SMILES is read from it. * marks the point of attachment. C18 diacid = O=C(O)CCCCCCCCCCCCCCCCC(=O)*; γGlu = O=C(O)[C@H](CCC(=O)[*:2])N[*:1]; αMeF = C[C@](N)(Cc1ccccc1)C(=O)O; Aib = CC(C)(N)C(=O)O A value given as a limit tells only on which side of the number the result lay.

As a reminder, the half-life is the time in which the quantity being followed falls by half. A word on the EC50: it is the concentration needed to bring the measured effect to its halfway point.

Protocol for in vivo: PK studies were performed to determine the half-life (T1/2) of test peptides. T1/2 describes the time taken for the maximum plasma concentration (Cmax) of a test substance to halve its steady-state concentration when in circulation.
Male SD rats were purchased from Si Bei Fu Laboratory Animal Technology Co. Ltd (China). The animals were 6-8 weeks old with body weights of 200-300 g on the dosing date. The animals were housed in a 12-hour light/12-hour dark cycle environment and were fasted overnight before dosing. The body weight of the animals were recorded before dosing, 24 h and 48 h post dosing . Animals had free access to food and drinks, and the food consumption was quantified every day.
Test articles were administered at 20 nmol/kg. Blood samples were collected from each animal via Jugular vein.
The blood samples were transferred into eppendorf low binding tube containing K2 EDTA. Above 0.150 mL blood were collected at each time point. Blood samples were centrifuged at 4,000 g for 5 minutes at 4° C. to obtain plasma. The plasma samples were stored frozen at −75±15° C. until analysis.
Concentrations of the test articles in the plasma samples were analyzed using a LC-MS/MS method. Data acquisition was performed by LabSolution version 5.89 software (Shimadzu, Kyoto, Japan). Data statistics were performed using Excel 97-2003 software. The pharmacokinetic parameters of test articles were calculated using a non-compartmental approach with Phoenix™ VVinNonlin® 6.1.
The following pharmacokinetic parameters were calculated, whenever possible from the plasma concentration versus time data: • IV administration: T1/2, C0, AUClast, AUCinf, MRTinf, Cl, Vss, Number of Points for Regression. • SC administration: Tmax, Cmax, AUClast, AUCinf, MRTinf, F, Number of Points for Regression.

For the compound `CC[C@H](C)[C@H](NC(=O)[C@@H]1CCCN1C(=O)CNC(=O)[C@](C)(Cc1ccccc1)NC(=O)[C@H](CC(N)=O)NC(=O)[C@H](CC(N)=O)NC(=O)[C@H](CO)NC(=O)[C@H](CO)NC(=O)[C@H](Cc1c[nH]cn1)NC(=O)[C@@H](NC(=O)[C@H](CC(C)C)NC(=O)[C@H](Cc1ccccc1)NC(=O)[C@H](CC(N)=O)NC(=O)[C@H](C)NC(=O)[C@H](CC(C)C)NC(=O)[C@H](CCCNC(=N)N)NC(=O)[C@H](CCC(N)=O)NC(=O)[C@@H](NC(=O)[C@H](C)NC(=O)[C@@H]1CSSC[C@H](NC(=O)[C@@H](N)CCCCNC(=O)CC[C@H](NC(=O)CC[C@H](NC(=O)CCCCCCCCCCCCCCCCC(=O)O)C(=O)O)C(=O)O)C(=O)N[C@@H](CC(N)=O)C(=O)N[C@@H]([C@@H](C)O)C(=O)N[C@@H](C)C(=O)N[C@@H]([C@@H](C)O)C(=O)N1)[C@@H](C)O)C(C)C)C(=O)N[C@@H](CC(C)C)C(=O)N1CCC[C@H]1C(=O)N1CCC[C@H]1C(=O)N[C@H](C(=O)N[C@@H](CC(N)=O)C(=O)N[C@H](C(=O)NCC(=O)N[C@@H](CO)C(=O)N[C@@H](CCCNC(=N)N)C(=O)N[C@H](C(=O)N[C@@H](Cc1ccc(O)cc1)C(N)=O)[C@@H](C)O)C(C)C)[C@@H](C)O` [Peptide 21, K(γE-γE-C18diacid)[CNTATC]ATQRLANFLVHSSNN(αMePhe)GPILPPTNVGSRTY-amide] (H-K([γGlu-γGlu-C18 diacid])CNTATCATQRLANFLVHSSNN[αMeF]GPILPPTNVGSRTY-NH2; disulfide 2-7; N-terminus assumed), the half-life in “in vivo” (iv) is 8 h; in the data set “in vivo” (sc) it was 8.1 h. Further, the figures for the EC50 in data set [1] and in data set [2] were 3410 pM and 136 pM, respectively. For the same compound, the “Ratio (selectivity hAMYR vs hCTR, ratio of EC50 values at the two receptors)” value in data set [2] amounted to 25. Moreover, the “Time taken to detect increase in fluorescence intensity” value (from here on “Time taken to detect increase”) in data set [3] was over 144 h.
As for `CC[C@H](C)[C@H](NC(=O)[C@@H]1CCCN1C(=O)CNC(=O)[C@](C)(Cc1ccccc1)NC(=O)[C@H](CC(N)=O)NC(=O)[C@H](CC(N)=O)NC(=O)[C@H](CO)NC(=O)[C@H](CO)NC(=O)[C@H](Cc1c[nH]cn1)NC(=O)[C@@H](NC(=O)[C@H](CC(C)C)NC(=O)[C@H](Cc1ccccc1)NC(=O)[C@H](CC(N)=O)NC(=O)[C@H](C)NC(=O)[C@H](CC(C)C)NC(=O)[C@H](CCCNC(=N)N)NC(=O)[C@H](CCC(N)=O)NC(=O)[C@@H](NC(=O)[C@H](C)NC(=O)[C@@H]1CSSC[C@H](NC(=O)[C@@H](N)CCCCNC(=O)CC[C@H](NC(=O)CCCCCCCCCCCCCCCCC(=O)O)C(=O)O)C(=O)N[C@@H](CC(N)=O)C(=O)N[C@@H]([C@@H](C)O)C(=O)N[C@@H](C)C(=O)N[C@@H]([C@@H](C)O)C(=O)N1)[C@@H](C)O)C(C)C)C(=O)N[C@@H](CC(C)C)C(=O)N1CCC[C@H]1C(=O)N1CCC[C@H]1C(=O)N[C@H](C(=O)N[C@@H](CCCNC(=N)N)C(=O)N[C@H](C(=O)NCC(=O)N[C@@H](CO)C(=O)N[C@@H](CC(N)=O)C(=O)N[C@H](C(=O)N[C@@H](Cc1ccc(O)cc1)C(N)=O)[C@@H](C)O)C(C)C)[C@@H](C)O` [Peptide 25, K(γE-C18diacid)[CNTATC]ATQRLANFLVHSSNN(αMePhe)GPILPPTRVGSNTY-amide] (H-K([γGlu-C18 diacid])CNTATCATQRLANFLVHSSNN[αMeF]GPILPPTRVGSNTY-NH2; disulfide 2-7), the figures for the half-life in the data set “in vivo” (iv) and in “in vivo” (sc) were 6.9 h and 8 h, respectively. For the same compound, the figures for the EC50 in data set [1] and in data set [2] were 1250 pM and 105 pM, respectively. In data set [2], the “Ratio (selectivity hAMYR vs hCTR, ratio of EC50 values at the two receptors)” value is on record as 12. Besides, in data set [3], the “Time taken to detect increase” value is listed as over 144 h.
As for `CC[C@H](C)[C@H](NC(=O)[C@@H]1CCCN1C(=O)CNC(=O)[C@H](Cc1ccccc1)NC(=O)[C@H](CC(N)=O)NC(=O)C(C)(C)NC(=O)[C@H](CO)NC(=O)[C@H](CO)NC(=O)[C@H](Cc1c[nH]cn1)NC(=O)[C@@H](NC(=O)[C@H](CC(C)C)NC(=O)[C@H](Cc1ccccc1)NC(=O)[C@H](CC(N)=O)NC(=O)[C@H](C)NC(=O)[C@H](CC(C)C)NC(=O)[C@H](CCCNC(=N)N)NC(=O)[C@H](CCC(N)=O)NC(=O)[C@@H](NC(=O)[C@H](C)NC(=O)[C@@H]1CSSC[C@H](NC(=O)[C@H](CCCCN)NC(=O)[C@@H](N)CCCCNC(=O)CC[C@H](NC(=O)CC[C@H](NC(=O)CCCCCCCCCCCCCCCCC(=O)O)C(=O)O)C(=O)O)C(=O)N[C@@H](CC(N)=O)C(=O)N[C@@H]([C@@H](C)O)C(=O)N[C@@H](C)C(=O)N[C@@H]([C@@H](C)O)C(=O)N1)[C@@H](C)O)C(C)C)C(=O)N[C@@H](CC(C)C)C(=O)N1CCC[C@H]1C(=O)N1CCC[C@H]1C(=O)N[C@H](C(=O)N[C@@H](CCCNC(=N)N)C(=O)N[C@H](C(=O)NCC(=O)N[C@@H](CO)C(=O)N[C@@H](CC(N)=O)C(=O)N[C@H](C(=O)N[C@@H](Cc1ccc(O)cc1)C(N)=O)[C@@H](C)O)C(C)C)[C@@H](C)O` [Peptide 70, K(γE-γE-C18diacid)K[CNTATC]ATQRLANFLVHSS(Aib)NFGPILPPTRVGSNTY-amide] (H-K([γGlu-γGlu-C18 diacid])KCNTATCATQRLANFLVHSS[Aib]NFGPILPPTRVGSNTY-NH2; disulfide 3-8; N-terminus assumed), the half-life in the data set “in vivo” (iv) is 10.3 h; in “in vivo” (sc), 12.5 h. Further, the figures for the EC50 in data set [1] and in data set [2] were 5400 pM and 235 pM, respectively. The “Ratio (selectivity hAMYR vs hCTR, ratio of EC50 values at the two receptors)” value in data set [2] was 23. Further, the “Time taken to detect increase” value in data set [3] is over 144 h.
`CC[C@H](C)[C@H](NC(=O)[C@@H]1CCCN1C(=O)CNC(=O)[C@H](Cc1ccccc1)NC(=O)[C@H](CC(N)=O)NC(=O)C(C)(C)NC(=O)[C@H](CO)NC(=O)[C@H](CO)NC(=O)[C@H](Cc1c[nH]cn1)NC(=O)[C@@H](NC(=O)[C@H](CC(C)C)NC(=O)[C@H](Cc1ccccc1)NC(=O)[C@H](CC(N)=O)NC(=O)[C@H](C)NC(=O)[C@H](CC(C)C)NC(=O)[C@H](CCCNC(=N)N)NC(=O)[C@H](CCC(N)=O)NC(=O)[C@@H](NC(=O)[C@H](C)NC(=O)[C@@H]1CSSC[C@H](NC(=O)[C@H](CCCCN)NC(=O)[C@@H](N)CCCCNC(=O)CC[C@H](NC(=O)CCCCCCCCCCCCCCCCC(=O)O)C(=O)O)C(=O)N[C@@H](CC(N)=O)C(=O)N[C@@H]([C@@H](C)O)C(=O)N[C@@H](C)C(=O)N[C@@H]([C@@H](C)O)C(=O)N1)[C@@H](C)O)C(C)C)C(=O)N[C@@H](CC(C)C)C(=O)N1CCC[C@H]1C(=O)N1CCC[C@H]1C(=O)N[C@H](C(=O)NC(C)(C)C(=O)N[C@H](C(=O)NCC(=O)N[C@@H](CO)C(=O)N[C@@H](CC(N)=O)C(=O)N[C@H](C(=O)N[C@@H](Cc1ccc(O)cc1)C(N)=O)[C@@H](C)O)C(C)C)[C@@H](C)O` [Peptide 80, K(γE-C18diacid)K[CNTATC]ATQRLANFLVHSS(Aib)NFGPILPPT(Aib)VGSNTY-amide] (H-K([γGlu-C18 diacid])KCNTATCATQRLANFLVHSS[Aib]NFGPILPPT[Aib]VGSNTY-NH2; disulfide 3-8; N-terminus assumed): the half-life was 9.7 h in “in vivo” (iv) and 9.9 h in “in vivo” (sc). The figures for the half-maximal effective concentration (EC50) in data set [1] and in data set [2] were 2970 pM and 407 pM, respectively. The “Ratio (selectivity hAMYR vs hCTR, ratio of EC50 values at the two receptors)” value in data set [2] is listed as 7. The “Time taken to detect increase” value in data set [3] was over 144 h.
